Measured values from PubChem BioAssay AID248 (DTP/NCI, 2004).
Toxic doses and inconclusive results are not listed. Rule as the data show it: active = T/C of 150% or more; inactive = T/C below 125%.

Test system: L1210 leukemia ip in BDF1 mice, survival T/C
Test: NCI In Vivo Anticancer Drug Screen. Data for tumor model L1210 Leukemia (intraperitoneal) in B6D2F1 (BDF1) mice
Details: endpoint: mean survival time, higher = longer survival
Procedure, shortened: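 Tumor cells were implanted, animals were treated, and survival was followed. The result divides the treated measurement by the vehicle-control measurement.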

[1] = dose: 100.0 mg/kg/injection, schedule: Q01DX001 (ip), vehicle: saline
[2] = dose: 200.0 mg/kg/injection, schedule: Q01DX001 (ip), vehicle: saline
[3] = dose: 400.0 mg/kg/injection, schedule: Q01DX001 (ip), vehicle: saline
[4] = dose: 100.0 mg/kg/injection, schedule: Q04DX003 (ip), vehicle: saline with Tween-80
[5] = dose: 100.0 mg/kg/injection, schedule: Q01DX009 (ip), vehicle: Klucel (hydroxypropylcellulose) (HPC)
[6] = dose: 200.0 mg/kg/injection, schedule: Q01DX009 (ip), vehicle: Klucel (hydroxypropylcellulose) (HPC)
[7] = dose: 100.0 mg/kg/injection, schedule: Q01DX009 (ip), vehicle: saline with Tween-80
[8] = dose: 200.0 mg/kg/injection, schedule: Q01DX009 (ip), vehicle: saline with Tween-80
[9] = dose: 200.0 mg/kg/injection, schedule: Q04DX003 (ip), vehicle: saline with Tween-80
[10] = dose: 400.0 mg/kg/injection, schedule: Q01DX009 (ip), vehicle: saline with Tween-80
[11] = dose: 400.0 mg/kg/injection, schedule: Q01DX009 (ip), vehicle: Klucel (hydroxypropylcellulose) (HPC)

Measured: T/C

NC(Cc1ccc(Cl)cc1)C(=O)O (configuration not stated)
inactive: dose: 50.0 mg/kg/injection, schedule: Q01DX001 (ip), vehicle: water 95 % of control | dose: 100.0 mg/kg/injection, schedule: Q01DX001 (ip), vehicle: water 98 % of control | dose: 200.0 mg/kg/injection, schedule: Q01DX001 (ip), vehicle: water 93 % of control | dose: 400.0 mg/kg/injection, schedule: Q01DX001 (ip), vehicle: water 93 % of control | dose: 800.0 mg/kg/injection, schedule: Q01DX001 (ip), vehicle: water 90 % of control | dose: 1200.0 mg/kg/injection, schedule: Q01DX001 (ip), vehicle: water 96 % of control | dose: 1600.0 mg/kg/injection, schedule: Q01DX001 (ip), vehicle: water 96 % of control | dose: 2000.0 mg/kg/injection, schedule: Q01DX001 (ip), vehicle: water 93 % of control

CCC1(NS(=O)(=O)c2ccc(N)cc2)C(=O)N(C)C(=O)N(C)C1=O
inactive: [1] 94 % of control | [2] 94 % of control | [3] 91 % of control

Nc1ncnc2c1ncn2CCCCCCl
inactive: dose: 12.5 mg/kg/injection, schedule: Q04DX003 (ip), vehicle: saline 90 % of control | dose: 25.0 mg/kg/injection, schedule: Q04DX003 (ip), vehicle: saline 88 % of control | dose: 50.0 mg/kg/injection, schedule: Q04DX003 (ip), vehicle: saline 100 % of control

O=C(C=C(C(F)(F)F)C(F)(F)F)c1cccc(C(F)(F)F)c1
inactive: dose: 12.5 mg/kg/injection, schedule: Q01DX009 (ip), vehicle: saline with Tween-80 102 % of control | dose: 25.0 mg/kg/injection, schedule: Q01DX009 (ip), vehicle: saline with Tween-80 95 % of control | [4] 89 % of control

Nc1nc(N)c(N=Nc2ccc(S(=O)(=O)Nc3ccccn3)cc2)cc1N=Nc1ccccc1
inactive: dose: 100.0 mg/kg/injection, schedule: Q01DX001 (ip), vehicle: carboxymethylcellulose (CMC) 94 % of control | dose: 200.0 mg/kg/injection, schedule: Q01DX001 (ip), vehicle: carboxymethylcellulose (CMC) 102 % of control | dose: 400.0 mg/kg/injection, schedule: Q01DX001 (ip), vehicle: carboxymethylcellulose (CMC) 103 % of control

N#CC(C(N)=O)C1CC(=O)Oc2ccccc21 (configuration not stated)
inactive: dose: 50.0 mg/kg/injection, schedule: Q01DX009 (ip), vehicle: Klucel (hydroxypropylcellulose) (HPC) 100 % of control | [5] 105 % of control | [6] 100 % of control

CC(=O)NC1C(OC(C)=O)OC(COC(c2ccccc2)(c2ccccc2)c2ccccc2)C(OC(C)=O)C1OC(C)=O (configuration not stated)
inactive: [1] 108 % of control | [2] 96 % of control | [3] 96 % of control

CC[N+](CC)(CC)CCOC(=O)C1C2CC3OC(=O)C1C3C2 (configuration not stated)
inactive: dose: 100.0 mg/kg/injection, schedule: Q04DX003 (ip), vehicle: saline 96 % of control

Cc1ccc(C)c(CCO)c1
inactive: [7] 100 % of control | [4] 97 % of control | [8] 95 % of control | [9] 108 % of control | [10] 91 % of control

CCOC(=O)C(C)C(O)(c1ccccc1)c1ccccc1 (configuration not stated)
inactive: [5] 90 % of control | [6] 97 % of control | [11] 106 % of control

O=S(=O)(Nc1ccccc1F)c1ccc2ccccc2c1
inactive: dose: 100.0 mg/kg/injection, schedule: Q01DX009 (ip), vehicle: saline 93 % of control | dose: 200.0 mg/kg/injection, schedule: Q01DX009 (ip), vehicle: saline 93 % of control | dose: 400.0 mg/kg/injection, schedule: Q01DX009 (ip), vehicle: saline 98 % of control

O=C1OC(c2ccc([N+](=O)[O-])cc2)=N/C1=C\c1cc(Br)ccc1O
inactive: [5] 91 % of control | [6] 96 % of control | [11] 93 % of control

Oc1c(Br)cc(Br)cc1C=Nc1ccc(Br)cc1.Oc1c(Br)cc(Br)cc1C=Nc1ccc(Br)cc1.[Co]
inactive: [4] 95 % of control | [9] 95 % of control | dose: 400.0 mg/kg/injection, schedule: Q04DX003 (ip), vehicle: saline with Tween-80 95 % of control

Cc1ccc(C2(C(=O)O)CC2)cc1
inactive: [7] 100 % of control | [8] 97 % of control | [10] 94 % of control
